By AC50 is commonly meant the midpoint of the concentration-response curve, whichever way the signal moves. As usually defined, the EC50 is the concentration needed to bring the measured effect to its halfway point.

Active and inactive are the calls of the source. Bounds are passed on as bounds.

One assay concerns J774.A1. Put plainly: Confirmation of image-based Screening Assay for Inhibitors of Phagocytosis. [Related pubchem assays (depositor defined):AID1029, AID1643]. It counts as functional, cell-based. To be noted: Mus musculus.
Assay [1] addresses T1, Small ubiquitin-related modifier 1 (Homo sapiens, UniProt P63165). Put plainly: SUMO1 protein interaction blockers, potency – biochemical, fluorescence polarization, uHTS hits, dose response (AID 624382). It counts as functional. To be noted: read-out: IC50_Mean. A general note: Polarisation of emitted light reports the rotation of a fluorescent probe.
The target in a further assay is ORF 73 (Human herpesvirus 8, UniProt O40947). As to the kind of experiment: KSHV LANA DNA-binding disruption – biochemical, fluorescence polarization, cherry-picked samples, dose response (AID 504725).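 Further: fluorescence polarization of a labeled DNA duplex reporting LANA DNA binding; potency is for inhibitors that block LANA binding to the DNA.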 Also on record: species or system Human gammaherpesvirus 8.
Chain of ORF 73 (O40947 whole entry): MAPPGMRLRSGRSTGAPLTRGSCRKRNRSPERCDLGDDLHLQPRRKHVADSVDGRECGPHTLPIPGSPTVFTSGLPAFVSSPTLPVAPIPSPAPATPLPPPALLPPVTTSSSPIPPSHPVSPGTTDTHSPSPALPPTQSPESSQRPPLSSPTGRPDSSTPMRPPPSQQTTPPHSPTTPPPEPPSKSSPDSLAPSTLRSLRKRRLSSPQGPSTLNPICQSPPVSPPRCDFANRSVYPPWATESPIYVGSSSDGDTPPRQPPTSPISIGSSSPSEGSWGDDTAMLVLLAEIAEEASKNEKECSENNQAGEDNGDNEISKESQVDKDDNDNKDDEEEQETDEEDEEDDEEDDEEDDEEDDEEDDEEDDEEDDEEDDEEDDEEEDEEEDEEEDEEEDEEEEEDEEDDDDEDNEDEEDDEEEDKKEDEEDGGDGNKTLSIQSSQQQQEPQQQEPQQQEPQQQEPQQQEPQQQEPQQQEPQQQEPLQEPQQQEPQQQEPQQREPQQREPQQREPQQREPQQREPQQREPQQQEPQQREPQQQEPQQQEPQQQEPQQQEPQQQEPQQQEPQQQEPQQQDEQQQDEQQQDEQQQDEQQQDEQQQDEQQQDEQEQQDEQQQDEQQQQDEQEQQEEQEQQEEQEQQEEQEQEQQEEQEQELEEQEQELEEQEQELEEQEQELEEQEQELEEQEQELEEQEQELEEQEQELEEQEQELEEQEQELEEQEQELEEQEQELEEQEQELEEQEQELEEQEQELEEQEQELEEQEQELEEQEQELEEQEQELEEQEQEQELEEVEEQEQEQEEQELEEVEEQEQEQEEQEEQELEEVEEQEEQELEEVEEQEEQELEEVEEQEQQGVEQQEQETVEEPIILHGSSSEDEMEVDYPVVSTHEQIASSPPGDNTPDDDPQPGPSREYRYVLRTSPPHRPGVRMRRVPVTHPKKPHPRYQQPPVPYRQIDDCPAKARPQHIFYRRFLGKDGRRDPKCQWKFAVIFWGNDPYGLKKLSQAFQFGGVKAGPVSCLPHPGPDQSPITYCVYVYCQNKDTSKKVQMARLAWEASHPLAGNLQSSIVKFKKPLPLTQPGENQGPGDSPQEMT
The subject of the next assay is HeLa. Put plainly: viability loss in HeLa cells – cell-based, 24 h, cherry-picked samples, cytotoxicity control, dose response (AID 504726).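 Further: potency for cytotoxicity as loss of luminescence signal.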 It counts as functional. Particulars: Homo sapiens.
In assay [2] the target is T2, Probable nicotinate-nucleotide adenylyltransferase (Staphylococcus aureus (strain N315), UniProt P65502). The assay is classed as functional, Staphylococcus aureus subsp. aureus N315. Particulars: read-out: IC50_Mean.
T2 sequence (P65502 whole entry): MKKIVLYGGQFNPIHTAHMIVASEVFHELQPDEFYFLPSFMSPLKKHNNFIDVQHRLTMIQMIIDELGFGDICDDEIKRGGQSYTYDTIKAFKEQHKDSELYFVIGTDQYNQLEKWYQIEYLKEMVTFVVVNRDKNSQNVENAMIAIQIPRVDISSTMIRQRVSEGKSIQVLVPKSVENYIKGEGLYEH
Assay [3] deals with T2, Probable nicotinate-nucleotide adenylyltransferase. It counts as functional, Staphylococcus aureus subsp. aureus N315.
The target in assay [4] is T1, Small ubiquitin-related modifier 1. Put plainly: SUMO1 protein-protein binding blockers, potency – biochemical, FRET, dose response (AID 624383). The assay is classed as functional. Particulars: read-out: IC50_Mean.
The target of assay [5] is T3, Rac GTPase-activating protein 1 (Homo sapiens, UniProt Q9H0H5).
T3 sequence (Q9H0H5 whole entry): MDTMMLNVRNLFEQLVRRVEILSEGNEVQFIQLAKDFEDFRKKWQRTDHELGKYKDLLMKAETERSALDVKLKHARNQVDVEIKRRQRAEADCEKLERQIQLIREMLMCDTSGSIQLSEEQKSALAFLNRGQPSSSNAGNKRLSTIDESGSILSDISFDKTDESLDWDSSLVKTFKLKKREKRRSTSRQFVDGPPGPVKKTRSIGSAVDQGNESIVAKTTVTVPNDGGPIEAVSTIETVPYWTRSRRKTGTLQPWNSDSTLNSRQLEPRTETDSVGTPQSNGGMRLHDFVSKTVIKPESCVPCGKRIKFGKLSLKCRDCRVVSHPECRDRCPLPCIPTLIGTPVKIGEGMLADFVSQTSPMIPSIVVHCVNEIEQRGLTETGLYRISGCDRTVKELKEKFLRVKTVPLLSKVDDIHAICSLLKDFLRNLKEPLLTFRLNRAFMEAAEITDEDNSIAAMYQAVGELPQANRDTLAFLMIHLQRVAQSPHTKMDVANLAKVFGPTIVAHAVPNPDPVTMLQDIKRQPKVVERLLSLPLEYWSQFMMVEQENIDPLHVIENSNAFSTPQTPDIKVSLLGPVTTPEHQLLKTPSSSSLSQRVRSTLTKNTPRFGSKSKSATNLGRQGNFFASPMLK
As to the kind of experiment: blockers of MgcRacGAP-driven Rac1 GTP hydrolysis – biochemical, ADP Hunter fluorescence, primary and confirmatory, confirmation (AID 624330). The assay is classed as functional.

The nature of assay [6]: viability loss in CEM21 cells – cell-based, CellTiter-Glo luminescence, cherry-picked, cytotoxicity control for viral fusion inhibitor project, dose response (AID 652042).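 Further: potency for signal decrease meaning cytotoxicity.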 The assay is classed as functional. Background: Cellular ATP, detected with luciferase, serves as a proxy for viable cell number.
In another assay the target is T4, Cysteine protease ATG4B (Homo sapiens, UniProt Q9Y4P1).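 Further: Fluorescence-based dose-response confirmation assay measuring inhibition of ATG4B activity.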
T4 sequence (Q9Y4P1 whole entry): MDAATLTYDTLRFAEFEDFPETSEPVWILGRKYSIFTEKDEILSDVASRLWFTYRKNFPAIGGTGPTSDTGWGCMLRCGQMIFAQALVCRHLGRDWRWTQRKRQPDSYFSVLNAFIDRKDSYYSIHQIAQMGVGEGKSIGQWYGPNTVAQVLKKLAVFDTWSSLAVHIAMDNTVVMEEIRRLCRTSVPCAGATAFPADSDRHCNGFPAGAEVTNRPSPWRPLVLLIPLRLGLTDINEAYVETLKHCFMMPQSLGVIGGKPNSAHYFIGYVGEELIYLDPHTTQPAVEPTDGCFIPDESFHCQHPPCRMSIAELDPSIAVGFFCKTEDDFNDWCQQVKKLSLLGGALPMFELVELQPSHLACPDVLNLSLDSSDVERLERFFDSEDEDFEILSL
The assay is classed as functional.

A short description of assay [7]: off-target signal loss in HeLa-CEM21 co-culture – HeLa F-luc CTL cells, cherry-picked, counter-screen for HIV-1 Env fusion inhibitor project, dose response (AID 652040).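 Further: potency for signal decrease marking cytotoxic or nonspecific inhibition.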 The assay is classed as functional, cell-based. For orientation: A counterscreen serves to expose hits that act by an unwanted route or on another target.
A short description of assay [8]: blockers of HIV-1 ZM109 envelope-driven cell-cell fusion – HeLa effector, CEM target cells, luciferase, cherry-pick, dose response (AID 652058).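 Further: luciferase signal from HIV-1 Env mediated cell-cell fusion of effector and target cells.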 The assay is classed as functional, cell-based.
Assay [9] in a line: MIN6 cell viability loss – mouse insulinoma, cytotoxicity control, dose response (AID 2122).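 Further: confirmatory high-throughput counterscreen run to flag cytotoxic compounds.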 It counts as functional.
The nature of assay [10]: viability of HCT116 lacking mutant beta-catenin – cell-based, human colon tumor, dose response (AID 1045).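 Further: HCT116 colon tumor cells with beta catenin knocked out; cells exposed to compound for 60 hours.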 The assay is classed as functional.
Assay [11] in a line: blockers of HIV-1 envelope-mediated cell-cell fusion – cherry-pick, dose response (AID 652057). It counts as functional, cell-based.
A further assay deals with X-box-binding protein 1 (Homo sapiens, UniProt P17861). It counts as functional, Cricetulus griseus.
Chain of X-box-binding protein 1 (P17861 whole entry): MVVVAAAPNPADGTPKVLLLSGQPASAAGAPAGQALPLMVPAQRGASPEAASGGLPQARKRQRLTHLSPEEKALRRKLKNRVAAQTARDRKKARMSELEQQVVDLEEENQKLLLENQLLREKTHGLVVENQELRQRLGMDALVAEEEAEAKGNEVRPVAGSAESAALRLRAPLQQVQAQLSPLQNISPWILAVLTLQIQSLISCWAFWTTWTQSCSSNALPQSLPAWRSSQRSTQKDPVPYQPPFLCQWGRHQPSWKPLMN
Assay [12] is described as follows: NIH-3T3 fibroblast cytotoxicity, dose response, cytotoxicity control, cell-based, fluorescence, Alamar Blue, secondary assay (AID 2327).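 Further: NIH-3T3 mouse fibroblasts cultured with fluconazole at 8 µg/mL.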 It counts as functional.
Assay [13] can be described thus: viability of PTEN-deleted HCT116 cells – cell-based, HCT116 PTEN knockout, dose response (AID 1047).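 Further: HCT116 colon tumor cells with PTEN knocked out; cells exposed to compound for 60 hours before readout; potency for loss of cell viability measured by luminescence.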 It counts as functional.
Assay [14] in a line: HIV-1 AD8 envelope cell-cell fusion blockers – cherry-pick, dose response (AID 652062).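 Further: luciferase signal from cell-cell fusion driven by HIV-1 clade B AD8 Env; potency is for inhibitors of fusion seen as a drop in luminescence.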 It counts as functional, cell-based.
The next assay deals with Phospholipase A2 (Homo sapiens, UniProt P04054). The assay is classed as functional.
Chain of Phospholipase A2 (P04054 whole entry): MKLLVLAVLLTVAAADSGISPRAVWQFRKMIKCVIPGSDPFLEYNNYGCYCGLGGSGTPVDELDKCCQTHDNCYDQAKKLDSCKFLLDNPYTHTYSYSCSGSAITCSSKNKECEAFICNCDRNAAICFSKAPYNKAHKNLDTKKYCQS
A short description of assay [15]: fluconazole-exposed Candida albicans growth modulators – fluorescence, retest, confirmation (AID 2467). It counts as functional, cell-based.
The nature of assay [16]: decrease of insulin promoter-GFP reporter – imaging, high-content screening, mouse beta cells (AID 1628). It counts as functional. To be noted: MIN6.
Assay [17] has as its target T5, Ubiquitin-conjugating enzyme E2 N (Homo sapiens, UniProt P61088).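 Further: Dose-response confirmation in a TR-FRET assay detecting UBC13-driven polyubiquitin chain formation, inhibition measured.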
T5 sequence (P61088 whole entry): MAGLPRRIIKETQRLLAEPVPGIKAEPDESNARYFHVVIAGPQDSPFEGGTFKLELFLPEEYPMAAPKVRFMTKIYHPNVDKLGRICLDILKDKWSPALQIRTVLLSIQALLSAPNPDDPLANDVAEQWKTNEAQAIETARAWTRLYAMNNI
The assay is classed as functional.

Assay [18] deals with T6, Neuropeptides B/W receptor type 1 (Homo sapiens, UniProt P48145).
T6 sequence (P48145 whole entry): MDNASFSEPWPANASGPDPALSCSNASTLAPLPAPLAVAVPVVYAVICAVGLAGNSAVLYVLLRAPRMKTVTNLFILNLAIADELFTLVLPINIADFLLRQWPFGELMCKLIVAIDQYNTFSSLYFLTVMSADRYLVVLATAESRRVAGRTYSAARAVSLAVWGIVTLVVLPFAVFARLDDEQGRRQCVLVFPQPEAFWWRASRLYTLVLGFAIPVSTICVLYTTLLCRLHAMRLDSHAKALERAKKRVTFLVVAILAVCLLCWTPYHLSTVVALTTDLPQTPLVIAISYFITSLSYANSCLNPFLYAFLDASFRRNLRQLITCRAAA
Put plainly: human NPBW1 receptor blockade, IC50 – cell-based, fluorescence, dose response, late-stage follow-up (AID 463251). The assay is classed as functional.

For assay [19], the target named is Melanin-concentrating hormone receptor 1 (Homo sapiens, UniProt Q99705). Put plainly: Late-stage fluorescence-based counterscreen for antagonists of the G-protein coupled receptor 7 (GPR7): cell-based dose response assay to identify antagonists of the melanin-concentrating hormone receptor 1 (MCHR1). [Related pubchem assays (depositor defined):AID1861, AID1880, AID1952, AID2148, AID2251, AID2257, AID485339]. It counts as functional.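 Further: stimulated with 30 nM MCH peptide agonist.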
Chain of Melanin-concentrating hormone receptor 1 (Q99705 whole entry): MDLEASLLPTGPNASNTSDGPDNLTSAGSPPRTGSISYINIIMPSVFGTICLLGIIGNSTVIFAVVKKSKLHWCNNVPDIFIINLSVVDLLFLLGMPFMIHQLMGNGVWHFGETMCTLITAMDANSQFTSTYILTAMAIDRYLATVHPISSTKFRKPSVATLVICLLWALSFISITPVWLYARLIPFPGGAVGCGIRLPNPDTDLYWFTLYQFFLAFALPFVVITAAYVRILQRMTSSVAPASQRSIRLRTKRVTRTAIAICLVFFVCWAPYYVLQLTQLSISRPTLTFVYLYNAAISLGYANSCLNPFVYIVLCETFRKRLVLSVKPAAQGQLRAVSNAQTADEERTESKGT
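Wherever Absolute IC50 (XBP1) is given: confirmatory dose-response counter-screen serving a CHOP assay.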

T1 sequence (P63165 whole entry): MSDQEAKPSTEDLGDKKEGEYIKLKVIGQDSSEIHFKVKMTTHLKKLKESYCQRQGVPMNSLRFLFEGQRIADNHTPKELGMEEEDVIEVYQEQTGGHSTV

In the case of `Cc1c(C=NNC(=O)C2COc3ccccc3O2)c2ccccc2n1C` (stereo not given), the IC50 in the assay on J774.A1 was > 25 µM (inactive).
As to `O=S(=O)(O)c1cc(O)c2ccc(Nc3ccccc3)cc2c1`, the IC50 in assay [1] is > 66.6 µM (inactive); in assay [2] it was 40.3 µM (active); in assay [3], 15.9 µM (active); in [4] it was 2.16 µM (active); in assay [5], 40.9 µM (active). Besides, the results for the AC50 at ORF 73 and in the assay on HeLa were 95.9 µM (active) and 241 µM (active), respectively.
For `Cc1cc(Nc2ccc(Cl)cc2)nc(NCc2ccccc2)n1`, the AC50 in assay [6] is 15.3 µM (active); in assay [7], 4.05 µM (active); in [8], 3.31 µM (active); in assay [11] it was 2.98 µM (active); in [14], 8.5 µM (active). The IC50 on Cysteine protease ATG4B is 10.9 µM (active); in assay [9] it was 0.878 µM (active); on Phospholipase A2, 15.4 µM (active); in [16], 1.51 µM (active); in assay [17], > 20 µM (inactive). Further, the EC50 in assay [10] was 6.7 µM (active); in [12], > 150 µM (inactive); in assay [13], 5.72 µM (active); in assay [15], 2.45 µM (active). For the same molecule, the “Absolute IC50 (XBP1)” value on X-box-binding protein 1 is less than 10 µM.
Consider `CC(=O)Nc1ccc(Oc2c(Cl)cnn(-c3ccc(C(C)C)cc3)c2=O)cc1`, for which the IC50 is 2.1 µM (active) in assay [18] and 6.3 µM (active) in assay [19].

(Values after ChEMBL document CHEMBL1201862, “PubChem BioAssay data set” (2004).)
